What was measured:
[1] = test system: α-glucosidase; assay: enzyme kinetics of α-glucosidase inhibition (Lineweaver-Burk and secondary plots); type: biochemical, Saccharomyces cerevisiae; details: for inhibition type against α-glucosidase: Lineweaver-Burk plots; for Ki: secondary plots, free enzyme, read-out: Ki (the inhibition constant of the free enzyme)
Protocol: (§1) Optical rotations were measured with an Anton Paar MCP 200 Automatic Polarimeter (Anton Paar, Graz, Austria). The UV data were recorded on a Thermo Genesys-10S UV/Vis spectrophotometer (Thermo Fisher Scientific, Waltham, MA, USA). ECD spectra were recorded with a JASCO J-815 spectropolarimeter (JASCO, Tsukuba, Japan) by using CH3OH as the solvent. Infrared spectra were obtained on a Nicolet IS5 FT-IR spectrophotometer (Thermo Fisher Scientific, Waltham, MA, USA). ^1H and ^13C NMR spectroscopic data were acquired with a Bruker Avance-500 spectrometer (Bruker, Bremen, Germany) using the solvent signals as a reference (CD3OD: δH 3.31/δC 49.00). HRESIMS data were obtained using an Agilent Accurate-Mass-Q-TOF LC/MS 6520 instrument (Agilent Technologies, Santa Clara, CA, USA) equipped with an electrospray ionization (ESI) source. Semi-preparative HPLC separation was performed on an Agilent 1260 instrument equipped with a variable-wavelength UV detector (Agilent Technologies Inc., CA, USA) using a YMC-pack ODS-A (10 × 250 mm, 5 μm, 2 mL/min, YMC CO., LTD., Kyoto, Japan).
The inhibition types of compounds 2 and 3 on α-glucosidase were determined by Lineweaver−Burk plots according to a previous report. The α-glucosidase inhibition kinetics were determined with selected concentrations of p-NPG (1.5625, 3.125, 6.25, 12.5 and 25 mM) under different concentrations of 2 and 3 (200, 400 and 800 μM) by keeping the enzyme concentration at 0.5 U/mL. The inhibition constant was determined by the second plots of the apparent Km/Vm or 1/Vm versus the concentration of the inhibitor.

[2] = biological target: α-glucosidase; assay: α-glucosidase inhibition assay (p-NPG substrate); type: biochemical, Saccharomyces cerevisiae; details: for IC50: 0.5 U/mL enzyme, p-NPG substrate, 37 °C; for α-glucosidase inhibition rate: at a concentration of 400 µM
Protocol: as §1
The α-glucosidase inhibitory activity assay was measured as described in previous reports. Briefly, 50 μL of 0.5 U/mL α-glucosidase and 25 μL of a series of solutions (0.1, 0.2, 0.4, 0.8 and 1.6 mM) of the test compounds 1−10 were added into 96-well plates. After incubation at 37 °C for 10 min, 25 μL of 25 mM p-NPG was added and further incubated at 37 °C for 10 min.

[3] = DPPH antioxidant scavenging assay; details: 37 °C, 30 min, absorbance 517 nm
Protocol: The DPPH antioxidant scavenging assay was performed according to the previously reported method. Briefly, 50 µL of DPPH (0.34 mmol/L in EtOH) and 50 µL of a series of solutions (12.5, 25, 50, 100, and 200 μM) of the test compounds 1−10 were mixed in the wells of 96-well plates. Each mixture was incubated at 37 °C for 30 min in a dark environment. The absorbance was read at 517 nm using a microplate reader, employing distilled water as a blank for baseline correction. All experiments were performed in triplicate, and ascorbic acid was used as a positive control.

Row | Compound | inhibition type against α-glucosidase [1] | Ki [1] | IC50 [2] | α-glucosidase inhibition rate ([2]; 400 µM) | IC50 [3] | α-glucosidase inhibition rate [2]
1 | CC12CC(O)C(O)C=C1c1cc(O)cc(O)c1C(=O)O2 (stereo not drawn) [Compound 2, Alternolide B] | mixed-type inhibitors | 347 µM | 725.9 ± 4.75 µM | 36.62% | – | –
2 | CC12CC(O)C(O)C=C1c1cc(O)cc(O)c1C(=O)O2 (stereo not drawn) [Compound 3, Alternolide C] | mixed-type inhibitors | 108 µM | 451 ± 6.95 µM | 49.24% | – | –
3 | COc1cc(O)c2c(=O)oc3c(O)c(O)cc(C)c3c2c1 [Compound 6, 3′-hydroxyalternariol 5-O-methyl ether] | – | – | – | – | 83.9 ± 4.14 µM | –
4 | COc1cc(O)c2c(=O)oc3cc(O)cc(CO)c3c2c1 [Compound 7, alternariol 1′-hydroxy-9-methyl ether] | – | – | 6.27 ± 0.68 µM | – | 23.6 ± 1.23 µM | 93.70%
5 | COc1cc2oc(=O)c3c(O)cc(O)cc3c2cc1O [Compound 8, altenuisol] | – | – | – | – | – | 37.29%
6 | COc1cc(O)c2c(=O)oc3c(c2c1)[C@@H](C)CC3=O [Compound 9, 1-deoxyrubralactone] | – | – | – | – | – | 53.95%
7 | O=C1O[C@H]([C@@H](O)CO)C(O)=C1O [ascorbic acid, reference compound] | – | – | – | – | 23.7 ± 1.03 µM | –

Source: paper PMC9785194, “New Dibenzo-α-pyrone Derivatives with α-Glucosidase Inhibitory Activities from the Marine-Derived Fungus Alternaria alternata” (Marine Drugs, 2022)
